# From patent US8269015B2, “4-azetidinyl-1-heteroaryl-cyclohexane antagonists of CCR2” (Janssen Pharmaceutica N.V., priority 2009, dated 2012)
# Molecular target: T1, CCR2 (Homo sapiens, UniProt P41597)
# T1 construct: host or cells: THP-1 (human monocytic cell line)
# T1 sequence (P41597 1-360 isoform P41597-2): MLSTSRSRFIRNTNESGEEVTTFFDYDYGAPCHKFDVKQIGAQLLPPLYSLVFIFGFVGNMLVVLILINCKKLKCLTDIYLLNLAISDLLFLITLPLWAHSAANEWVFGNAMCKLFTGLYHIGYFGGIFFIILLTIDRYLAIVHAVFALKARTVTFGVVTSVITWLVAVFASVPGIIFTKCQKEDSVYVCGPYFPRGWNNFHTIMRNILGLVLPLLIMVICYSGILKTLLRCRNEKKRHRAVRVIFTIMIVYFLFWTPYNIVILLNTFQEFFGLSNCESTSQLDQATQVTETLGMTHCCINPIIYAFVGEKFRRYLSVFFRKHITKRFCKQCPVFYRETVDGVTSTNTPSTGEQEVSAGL
# Experiment: MCP-1 Receptor Binding Assay in THP-1 Cells (125I labeled MCP-1)
# Details: 0.5 nM 125I labeled MCP-1, 2 hours at 30° C., read-out: Inhibition of MCP-1 Binding IC50, CCR2 Binding
# Procedure: Compounds of the invention were subjected to various representative biological tests. […] MCP-1 Receptor Binding Assay in THP-1 Cells
# Human monocytic cell line THP-1 cells were obtained from American Type Culture Collection (Manassas, Va., USA). […] The cell density was maintained […].
# 1 μM cold MCP-1 was used for nonspecific binding.
row,Compound,IC50 [µM]
1,"O=C(CNC(=O)c1cccc(C(F)(F)F)c1)NC1CN(C2CCC(c3cccc(NC(=O)C(F)(F)F)n3)CC2)C1 (centres unmarked) [Example 24, N-[(1-{4-[6-(2,2,2-Trifluoro-acetylamino)-pyridin-2-yl]-cyclohexyl}-azetidin-3-ylcarbamoyl)-methyl]-3-trifluoromethyl-benzamide]",0.06
2,"O=C(CNC(=O)c1cccc(C(F)(F)F)c1)NC1CN(C2CCC(c3c[nH]c(=O)s3)CC2)C1 (centres unmarked) [Example 54, N-({1-[4-(2-Oxo-2,3-dihydro-thiazol-5-yl)-cyclohexyl]-azetidin-3-ylcarbamoyl}-methyl)-3-trifluoromethyl-benzamide]",0.34
3,"O=C(CNC(=O)c1cccc(C(F)(F)F)c1)NC1CN(C2CCC(c3ccc(NC(=O)C(F)(F)F)cn3)CC2)C1 (centres unmarked) [Example 16, N-[(1-{4-[5-(2,2,2-Trifluoro-acetylamino)-pyridin-2-yl]-cyclohexyl}-azetidin-3-ylcarbamoyl)-methyl]-3-trifluoromethyl-benzamide]",0.095
4,"Nc1cccc(C2CCC(N3CC(NC(=O)CNC(=O)c4ccc(F)c(C(F)(F)F)c4)C3)CC2)n1 (centres unmarked) [Example 28, N-({1-[4-(6-Amino-pyridin-2-yl)-cyclohexyl]-azetidin-3-ylcarbamoyl}-methyl)-4-fluoro-3-trifluoromethyl-benzamide]",0.089
5,"O=C(CNC(=O)c1cccc(C(F)(F)F)c1)NC1CN(C2CCC(c3cc(O)ccn3)CC2)C1 (centres unmarked) [Example 12, N-({1-[4-(4-Hydroxy-pyridin-2-yl)-cyclohexyl]-azetidin-3-ylcarbamoyl}-methyl)-3-trifluoromethyl-benzamide]",> 25
6,"O=C(CNC(=O)c1cccc(C(F)(F)F)c1)NC1CN(C2CCC(c3cncc(O)c3)CC2)C1 (centres unmarked) [Example 5, N-({1-[4-(5-Hydroxy-pyridin-3-yl)-cyclohexyl]-azetidin-3-ylcarbamoyl}-methyl)-3-trifluoromethyl-benzamide]",0.26
7,"Cc1cc(=O)[nH]c(C2CCC(N3CC(NC(=O)CNC(=O)c4cccc(C(F)(F)F)c4)C3)CC2)n1 (mixture of isomers) [Example 60, N-({1-[4-(4-Methyl-6-oxo-1,6-dihydro-pyrimidin-2-yl)-cyclohexyl]-azetidin-3-ylcarbamoyl}-methyl)-3-trifluoromethyl-benzamide]",3.9
8,"Cn1cccc(C2CCC(N3CC(NC(=O)CNC(=O)c4cccc(C(F)(F)F)c4)C3)CC2)c1=O (centres unmarked) [Example 48, N-({1-[4-(1-Methyl-2-oxo-1,2-dihydro-pyridin-3-yl)-cyclohexyl]-azetidin-3-ylcarbamoyl}-methyl)-3-trifluoromethyl-benzamide]",0.63
9,"O=C(CNC(=O)c1cccc(C(F)(F)F)c1)NC1CN(C2CCC(c3ccncc3O)CC2)C1 (centres unmarked) [Example 9, N-({1-[4-(3-Hydroxy-pyridin-4-yl)-cyclohexyl]-azetidin-3-ylcarbamoyl}-methyl)-3-trifluoromethyl-benzamide]",0.052
10,"O=C(CNC(=O)c1cccc(C(F)(F)F)c1)NC1CN(C2CCC(c3ncccc3NC(=O)C(F)(F)F)CC2)C1 (centres unmarked) [Example 17, N-[(1-{4-[3-(2,2,2-Trifluoro-acetylamino)-pyridin-2-yl]-cyclohexyl}-azetidin-3-ylcarbamoyl)-methyl]-3-trifluoromethyl-benzamide]",0.92
11,"CS(=O)(=O)N(c1ccc(C2CCC(N3CC(NC(=O)CNC(=O)c4cccc(C(F)(F)F)c4)C3)CC2)nc1)S(C)(=O)=O (centres unmarked) [Example 14, N-({1-[4-(5-bis-{Methanesulfonyl}-amino-pyridin-2-yl)-cyclohexyl]-azetidin-3-ylcarbamoyl}-methyl)-3-trifluoromethyl-benzamide]",0.28
12,"O=C(CNC(=O)c1cccc(C(F)(F)F)c1)NC1CN(C2CCC(c3noc(=O)[nH]3)CC2)C1 (centres unmarked) [Example 57, N-({1-[4-(5-Oxo-4,5-dihydro-[1,2,4]oxadiazol-3-yl)-cyclohexyl]-azetidin-3-ylcarbamoyl}-methyl)-3-trifluoromethyl-benzamide]",1.1

# The remaining lines, values ahead:
row,IC50 [µM],Compound
1,0.11,"COc1ccc(C2(F)CCC(N3CC(NC(=O)CNC(=O)c4cccc(C(F)(F)F)c4)C3)CC2)cn1 (single isomer, unassigned) [Example 64a, N-({1-[4-Fluoro-4-(6-methoxy-pyridin-3-yl)-cyclohexyl]-azetidin-3-ylcarbamoyl}-methyl)-3-trifluoromethyl-benzamide]"
2,0.25,"Cc1cc(C2CCC(N3CC(NC(=O)CNC(=O)c4cccc(C(F)(F)F)c4)C3)CC2)c[nH]c1=O (single isomer, unassigned) [Example 44a, N-({1-[4-(5-Methyl-6-oxo-1,6-dihydro-pyridin-3-yl)-cyclohexyl]-azetidin-3-ylcarbamoyl}-methyl)-3-trifluoromethyl-benzamide]"
3,0.007,"COc1ccc(C2CCC(N3CC(NC(=O)CNC(=O)c4cccc(C(F)(F)F)c4)C3)CC2)cn1 (single isomer, unassigned) [Example 1a, N-({1-[4-(6-Methoxy-pyridin-3-yl)-cyclohexyl]-azetidin-3-ylcarbamoyl}-methyl)-3-trifluoromethyl-benzamide]"
4,0.037,"CCn1cc(C2CCC(N3CC(NC(=O)CNC(=O)c4cccc(C(F)(F)F)c4)C3)CC2)ccc1=O (centres unmarked) [Example 39a, N-({1-[4-(1-Ethyl-6-oxo-1,6-dihydro-pyridin-3-yl)-cyclohexyl]-azetidin-3-ylcarbamoyl}-methyl)-3-trifluoromethyl-benzamide]"
5,0.34,"COC(=O)Nc1ncc(C2CCC(N3CC(NC(=O)CNC(=O)c4cccc(C(F)(F)F)c4)C3)CC2)s1 (single isomer, unassigned) [Example 51a, [5-(4-{3-[2-(3-Trifluoromethyl-benzoylamino)-acetylamino]-azetidin-1-yl}-cyclohexyl)-thiazol-2-yl]-carbamic acid methyl ester]"
